Experimental data: patent publication US9394288B2, “Compositions and methods for the treatment of asthma and allergy” (CELLIX BIO PRIVATE LIMITED, priority 2012, dated 2016)

System: TNB/ethanol colitis
Experiment: Intracolonic administration in rat model of chronic colitis (TNB/ethanol): macroscopic colonic damage
Format: in vivo, Sprague-Dawley rats
Conditions: for macroscopic damage score: after four weeks of treatment, daily enema 50 mg/kg (Formula I (1-1): zileuton equivalent), p=0.026
Experimental: Female virgin Sprague-Dawley rats weighing 200-250 g were used in this study. The animals were maintained in a restricted access room with controlled temperature (23° C.) and light/dark cycle (16 h:8 h). The rats were housed in individual isolated rack mounted wire cages.
TNB/ethanol colitis was induced in 90 rats. Animals were thereafter randomised into four therapeutic groups to receive daily, from day 1 (24 hours after induction of colitis):
Group A (n=30)−0.25 ml of vehicle solution enema (1-5% carboxymethylcellulose in saline serum) (placebo group).
Group B (n=30)−0.25 ml of the vehicle solution enema added with 50 mg/kg of body weight of 5-ASA.
Group C (n=30)−0-25 ml of the vehicle solution enema added with 50 mg/kg of body weight of zileuton.
Group D (n=30)−0-25 ml of the vehicle solution enema added with 50 mg/kg of body weight of Formula I (1-1) equivalent of zileuton.
In addition, sham colitis was induced, by intrarectal administration of 0-25 ml of 0.9°/0 saline, in 10 rats (control group). At day 1 and 3, and at weeks 1, 2, and 4, 10 rats from groups A, B, C and D were randomly selected for the assessment of eicosanoid release in the lumen of the colon by intracolonic dialysis. Rats were anaesthetised with 100 mg of intraperitoneal thiopental and intracolonic dialysis was performed using hydrated Visking seamless cellulose tubing (8/32, 6-3 mm diameter, 7 cm long; Medicell International, London) attached by a 10 cm polyurethane cannula to an external syringe. After inserting the entire cannula into the distal colon, the dialysis bag was filled with 1 ml of dialysis solution, consisting of 0.3°/o bovine serum albumin in a solution of 120 mmol/1 NaCl and 30 mmol/1 KHCO3 adjusted to pH 7.90. One hour later, the fluid was withdrawn and immediately stored at −30 C. The volume of the dialysate recovered at the end of the one hour period was higher than 90%. In the control group (n=10), an intracolonic dialysis was performed in the same way 24 hours after the sham colitis induction. The day after the dialysis was performed at weeks 1, 2, and 4, the same animals were given a distal colectomy under total anaesthesia with 100 mg of intraperitoneal thiopental, to assess colonic inflammation macroscopically and histologically. The excised colon was opened longitudinally, rinsed with normal saline, pinned out on a wax block, and assigned a code number. Mucosal damage was assessed macroscopically as described later. Afterwards, three tissue specimens (2×10 mm) were obtained from the colon. When no severely visible inflammation was present, the specimens were taken from the regions 1 cm, 3 cm, and 8 cm proximal to the anus. When visible lesions were present, the specimens were taken from the affected regions. Tissue samples were fixed in formaldehyde and routinely processed. […]

SMILES | macroscopic damage score | all parameters measured by the score, mainly the development of strictures (at four weeks, compared with 5-ASA, zileuton and placebo)
Nc1ccc(O)c(C(=O)O)c1 [5-ASA] | 7.3 (0.7) | 
CC/C=C\C/C=C\C/C=C\C/C=C\C/C=C\CCCC(=O)NC(=O)N(O)C(C)c1cc2ccccc2s1 (stereo not shown) [Formula I (1-1)] | 4.36 (0.6) | improved
CC(c1cc2ccccc2s1)N(O)C(N)=O (stereo not shown) [zileuton] | 5.6 (0.7) | 
